Where a name gives a salt, the structure may show the parent alone.
System: HCT116
Details: 72 h
In short: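 After seeding at 250 cells per well in 1536-well plates, HCT116 cells were given 5 h to attach. CellTiter-Glo luminescence, scaled to 0% for vehicle and -100% for positive control, was pattern-corrected. Fitting with a four-parameter Hill model produced IC50 and maximal efficacy.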

Structure (SMILES) | IC50 cell viability (ICRF193 0 nM) [µM] | IC50 cell viability (ICRF193 200 nM) [µM]
CCC(=O)c1c(O)cc(O)cc1O [Flopropione] | > 45.8 | > 45.8
COc1ccc2[nH]c([S+]([O-])Cc3ncc(C)c(OC)c3C)nc2c1 (configuration not stated) [Omeprazole] | > 45.8 | > 45.8
Cc1ncc(C[n+]2csc(CCO)c2C)c(N)n1 [Thiamine hydrochloride] | > 45.8 | > 45.8
CC(C)Oc1ccc2c(=O)c(-c3ccccc3)coc2c1 [Ipriflavone] | > 45.8 | > 45.8
Nc1ccc(S(=O)(=O)NC(=O)c2ccccc2)cc1 [Sulfabenzamide] | > 45.8 | > 45.8
CCCCCCCCCCCCCCCC(=O)OC[C@@H](O)[C@H]1OC[C@H](O)[C@H]1O [Sorbitan monohexadecanoate] | > 45.8 | > 45.8
Oc1ccc(C(O)CNCCCCCCNCC(O)c2ccc(O)c(O)c2)cc1O (configuration not stated) [Hexoprenaline sulfate] | > 45.8 | > 45.8
COC(=O)[C@@H](N)CS [L-Cysteine methyl ester hydrochloride] | > 45.8 | > 45.8
CC(C)OC(=O)[C@H](C)N[P@@](=O)(OC[C@H]1O[C@@H](n2ccc(=O)[nH]c2=O)[C@](C)(F)[C@@H]1O)Oc1ccccc1 [PSI-7976] | > 45.8 | > 45.8
C[C@@H](CN1CC(=O)NC(=O)C1)N1CC(=O)NC(=O)C1 [Dexrazoxane hydrochloride] | > 45.8 | > 45.8
CCC(=O)O[C@@H]1C=C2CC[C@@H]3[C@H](CC[C@]4(C)[C@@H](OC(=O)CC)CC[C@@H]34)C2CC1 (some centres not stated) [Bolandiol dipropionate] | > 45.8 | > 45.8
CCOc1cc2ncc(C#N)c(Nc3ccc(OCc4ccccn4)c(Cl)c3)c2cc1NC(=O)/C=C/CN(C)C [Neratinib] | > 45.8 | > 45.8
CC(=O)CC(c1ccccc1)c1c(O)c2ccccc2oc1=O (configuration not stated) [Warfarin sodium] | > 45.8 | > 45.8
CS(=O)(=O)c1ccc([C@@H](O)[C@@H](CO)NC(=O)C(Cl)Cl)cc1 [Thiamphenicol] | > 45.8 | > 45.8
CC(=O)OCC(=O)[C@@]1(O)CC[C@H]2[C@@H]3CCC4=CC(=O)C=C[C@]4(C)[C@H]3[C@@H](O)C[C@@]21C [Prednisolone acetate] | > 45.8 | > 45.8
CC(C)(C)NCC(O)c1ccc(O)c(CO)n1 (configuration not stated) [Pirbuterol hydrochloride] | > 45.8 | > 45.8
C#C[C@]1(O)CC[C@H]2[C@@H]3CCC4=CC(=O)CC[C@@H]4[C@H]3C(=C)C[C@@]21CC [Etonogestrel] | > 45.8 | > 45.8
CCCCCCCCCCCCCC(=O)OC(C)C [Isopropyl tetradecanoic acid] | > 45.8 | > 45.8
NCCS [Cysteamine hydrochloride] | > 45.8 | > 45.8
O=C1CN2CCOC2(c2ccccc2Cl)c2cc(Cl)ccc2N1 (configuration not stated) [Cloxazolam] | > 45.8 | > 45.8
Nc1ncn([C@H]2C[C@H](O)[C@@H](CO)O2)c(=O)n1 [Decitabine] | > 45.8 | > 45.8
CS(=O)(=O)OCCCNCCCOS(C)(=O)=O [Improsulfan tosylate] | > 45.8 | > 45.8
CN(C)CCN(Cc1ccsc1)c1ccccn1 [Thenyldiamine] | > 45.8 | > 45.8
Cc1cn(-c2cc(NC(=O)c3ccc(C)c(Nc4nccc(-c5cccnc5)n4)c3)cc(C(F)(F)F)c2)cn1 [Nilotinib] | > 45.8 | > 45.8
CC1CC(OC(=O)C(O)c2ccccc2)CC(C)(C)C1 (configuration not stated) [Cyclandelate] | > 45.8 | > 45.8
CC1(O)CCC(C(C)(C)O)CC1 (configuration not stated) [p-Menthane-1,8-diol monohydrate] | > 45.8 | > 45.8

— the supplement of paper PMC12137928
